Publication PMC11494505, “Asymmetric Monoreduction of α,β-Dicarbonyls to α-Hydroxy Carbonyls by Ene Reductases” (ACS Catalysis, 2024)

Key:
GluER [1] = target: T1, GluER (Gluconobacter oxydans, UniProt Q5FTL6); experiment: bioconversion to 2-hydroxyhexan-3-one, chiral GC; assay type: biochemical; settings: 10 mM substrate, 5 μM enzyme, 1.1 eq. NADPH, 2% DMSO, pH 7.0, 30 °C, 6 h
T1 construct: gene GOX0502; wild type, N-terminal His-tag (pET-28a(+)), E. coli BL21 Gold(DE3), IMAC, FMN-loaded

CC(=O)C(=O)c1ccccc1 = test system: T2, CC(=O)C(=O)c1ccccc1; experiment: steady-state Michaelis-Menten kinetics; assay type: biochemical, Saccharomyces cerevisiae; settings: NADPH as cofactor
T2 construct: wild type, N-terminal His-tag (pET-28a(+)), E. coli BL21 Gold(DE3), IMAC, FMN-loaded

OYE2 [2] = target: T3, OYE2 (Saccharomyces cerevisiae, UniProt Q03558); experiment: bioconversion, GC; assay type: biochemical; settings: 10 mM substrate, 5 μM enzyme, 11 mM NADPH, 2% DMSO, pH 7.0, 30 °C, 6 h; product detected as 8c by GC
T3 construct: wild type, N-terminal His-tag (pET-28a(+)), E. coli BL21 Gold(DE3), IMAC, FMN-loaded
T3 sequence (Q03558 whole entry): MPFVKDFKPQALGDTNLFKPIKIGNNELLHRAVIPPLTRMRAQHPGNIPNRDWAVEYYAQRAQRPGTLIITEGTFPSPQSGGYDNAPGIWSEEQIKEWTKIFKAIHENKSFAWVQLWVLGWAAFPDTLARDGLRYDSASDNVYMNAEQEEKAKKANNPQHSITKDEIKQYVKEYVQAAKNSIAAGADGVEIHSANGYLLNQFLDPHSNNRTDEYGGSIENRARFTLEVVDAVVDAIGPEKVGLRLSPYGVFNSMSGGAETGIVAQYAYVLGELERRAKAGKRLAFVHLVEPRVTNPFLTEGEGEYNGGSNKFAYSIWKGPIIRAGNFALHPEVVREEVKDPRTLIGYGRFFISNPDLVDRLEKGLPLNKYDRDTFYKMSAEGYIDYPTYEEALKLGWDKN

EPB1 = target: T4, EPB1 (Candida albicans, UniProt A0A1D8PPK1); experiment: bioconversion to 7b, HPLC; assay type: biochemical; settings: 10 mM substrate, 5 μM enzyme, 11 mM NADPH, 2% DMSO, pH 7.0, 30 °C, 6 h
T4 construct: gene EBP1; wild type, N-terminal His-tag (pET-28a(+)), E. coli BL21 Gold(DE3); spelled EBP1 in Methods
T4 sequence (A0A1D8PPK1 whole entry): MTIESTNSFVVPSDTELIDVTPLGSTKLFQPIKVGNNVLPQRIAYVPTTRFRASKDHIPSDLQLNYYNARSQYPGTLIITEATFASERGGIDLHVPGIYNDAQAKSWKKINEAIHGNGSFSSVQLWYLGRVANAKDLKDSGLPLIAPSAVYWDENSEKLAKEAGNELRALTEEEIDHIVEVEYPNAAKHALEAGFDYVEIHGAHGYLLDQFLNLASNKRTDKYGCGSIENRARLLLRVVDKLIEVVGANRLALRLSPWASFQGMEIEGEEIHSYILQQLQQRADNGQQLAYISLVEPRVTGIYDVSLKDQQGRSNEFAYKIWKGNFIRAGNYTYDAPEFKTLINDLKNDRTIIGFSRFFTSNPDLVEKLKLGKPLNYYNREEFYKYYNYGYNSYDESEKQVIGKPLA

XenA = target: T5, XenA (Pseudomonas putida, UniProt Q9R9V9); experiment: bioconversion to 7b, HPLC; assay type: biochemical; settings: 10 mM substrate, 5 μM enzyme, 11 mM NADPH, 2% DMSO, pH 7.0, 30 °C, 6 h
T5 construct: recombinant in-house enzyme; details in supplement
T5 sequence (Q9R9V9 entry or part of it): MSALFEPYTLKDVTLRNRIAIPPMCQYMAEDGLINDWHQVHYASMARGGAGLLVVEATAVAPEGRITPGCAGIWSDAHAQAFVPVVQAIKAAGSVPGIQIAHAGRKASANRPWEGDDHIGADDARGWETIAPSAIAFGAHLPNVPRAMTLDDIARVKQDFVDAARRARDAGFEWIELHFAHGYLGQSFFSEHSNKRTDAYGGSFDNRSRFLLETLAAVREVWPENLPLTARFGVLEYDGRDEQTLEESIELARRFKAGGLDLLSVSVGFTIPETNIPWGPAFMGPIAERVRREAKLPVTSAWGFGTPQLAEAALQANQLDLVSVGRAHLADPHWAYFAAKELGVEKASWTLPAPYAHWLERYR

GluER [3] = target: T1, GluER; experiment: bioconversion to 7b and 7c, HPLC / GC; assay type: biochemical; settings: 10 mM substrate, 5 μM enzyme, 1.1 eq. NADPH, 2% DMSO, pH 7.0, 30 °C, 6 h
TsOYE = target: T6, TsOYE (Thermus scotoductus, UniProt B0JDW3); experiment: bioconversion to 7b, HPLC; assay type: biochemical; settings: 10 mM substrate, 5 μM enzyme, 11 mM NADPH, 2% DMSO, pH 7.0, 30 °C, 6 h
T6 construct: gene chrR; wild type, pET-28a(+), E. coli BL21 Gold(DE3), N-terminal His-tag, heat purified (70 °C)

TOYE = target: T7, TOYE (Thermoanaerobacter pseudethanolicus, UniProt B0KAH1); experiment: bioconversion to 7b, HPLC; assay type: biochemical; settings: 10 mM substrate, 5 μM enzyme, 11 mM NADPH, 2% DMSO, pH 7.0, 30 °C, 6 h
T7 construct: gene Teth39_0012; recombinant in-house enzyme; details in supplement
T7 sequence (B0KAH1 entry or part of it): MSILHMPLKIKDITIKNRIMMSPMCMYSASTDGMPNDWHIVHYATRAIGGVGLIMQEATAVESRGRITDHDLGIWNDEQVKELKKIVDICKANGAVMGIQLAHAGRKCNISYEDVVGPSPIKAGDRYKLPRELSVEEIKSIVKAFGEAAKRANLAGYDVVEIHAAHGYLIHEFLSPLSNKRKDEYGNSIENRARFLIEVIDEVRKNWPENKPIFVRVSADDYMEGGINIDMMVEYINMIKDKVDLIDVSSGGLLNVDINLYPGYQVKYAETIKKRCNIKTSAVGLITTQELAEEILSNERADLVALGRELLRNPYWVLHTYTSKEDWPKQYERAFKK

YqjM = target: T8, YqjM (Bacillus subtilis, UniProt P54550); experiment: bioconversion to 7b, HPLC; assay type: biochemical; settings: 10 mM substrate, 5 μM enzyme, 11 mM NADPH, 2% DMSO, pH 7.0, 30 °C, 6 h
T8 construct: gene namA; recombinant, purified; details in supplement
T8 sequence (P54550 2-338): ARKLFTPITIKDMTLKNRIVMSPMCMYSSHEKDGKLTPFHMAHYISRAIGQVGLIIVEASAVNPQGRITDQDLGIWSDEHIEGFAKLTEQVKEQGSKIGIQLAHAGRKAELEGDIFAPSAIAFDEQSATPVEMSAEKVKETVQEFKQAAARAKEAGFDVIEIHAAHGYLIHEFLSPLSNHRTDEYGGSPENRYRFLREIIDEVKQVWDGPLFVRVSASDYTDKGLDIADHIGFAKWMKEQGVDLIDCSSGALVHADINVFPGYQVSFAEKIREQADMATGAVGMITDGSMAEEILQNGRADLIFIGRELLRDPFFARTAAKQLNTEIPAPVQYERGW

OYE2 [4] = target: T3, OYE2; experiment: bioconversion to 7b, HPLC; assay type: biochemical; settings: 10 mM substrate, 5 μM enzyme, 11 mM NADPH, 2% DMSO, pH 7.0, 30 °C, 6 h
PETNR = target: T9, PETNR (Enterobacter cloacae, UniProt P71278); experiment: bioconversion to 7b, HPLC; assay type: biochemical; settings: 10 mM substrate, 5 μM enzyme, 11 mM NADPH, 2% DMSO, pH 7.0, 30 °C, 6 h
T9 construct: gene onr; recombinant in-house enzyme; details in supplement
T9 sequence (P71278 entry or part of it): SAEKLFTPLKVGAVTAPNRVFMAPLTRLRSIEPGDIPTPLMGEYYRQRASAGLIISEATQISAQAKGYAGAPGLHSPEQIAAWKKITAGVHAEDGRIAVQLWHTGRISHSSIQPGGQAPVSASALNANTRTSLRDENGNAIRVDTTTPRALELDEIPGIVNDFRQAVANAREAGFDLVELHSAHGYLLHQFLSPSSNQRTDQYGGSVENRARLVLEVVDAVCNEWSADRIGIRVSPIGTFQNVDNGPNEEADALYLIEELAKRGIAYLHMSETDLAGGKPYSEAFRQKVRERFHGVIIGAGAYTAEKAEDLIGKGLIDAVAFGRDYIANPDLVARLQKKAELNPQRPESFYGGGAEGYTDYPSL

T1 sequence (Q5FTL6 entry or part of it): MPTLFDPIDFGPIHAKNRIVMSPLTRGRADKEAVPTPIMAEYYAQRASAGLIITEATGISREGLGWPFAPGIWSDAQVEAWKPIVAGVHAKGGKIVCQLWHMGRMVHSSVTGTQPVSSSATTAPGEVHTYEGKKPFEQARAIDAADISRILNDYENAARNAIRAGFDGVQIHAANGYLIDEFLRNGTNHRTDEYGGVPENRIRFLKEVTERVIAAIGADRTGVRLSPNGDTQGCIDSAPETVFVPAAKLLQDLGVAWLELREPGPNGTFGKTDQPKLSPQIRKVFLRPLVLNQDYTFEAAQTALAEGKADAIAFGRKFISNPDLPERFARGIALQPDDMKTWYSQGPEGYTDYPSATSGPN

CCCC(=O)C(C)=O [2a, 2,3-hexanedione]
% conversion (GluER [1]): 19%

OYE3 (Saccharomyces cerevisiae S288C)
Km (CC(=O)C(=O)c1ccccc1): 2460 ± 250 µM | kcat (CC(=O)C(=O)c1ccccc1): 0.71 ± 0.03 s⁻¹

O=CC(=O)c1ccccc1 [8a, phenylglyoxal]
bioconversion, GC (OYE2 [2]): could confirm excellent conversions with 8a

CC(=O)C(=O)c1ccccc1 [7a, 1-phenyl-1,2-propanedione]
bioconversion to 7b, HPLC (EPB1): class II (OYE3, OYE2, EPB1) | bioconversion to 7b, HPLC (XenA): class III (TsOYE, XenA, TOYE, YqjM) | bioconversion to 7b and 7c, HPLC / GC (GluER [3]): GluER was the most versatile ERED, able to reduce 1a–5a, 7a, and 8a | bioconversion to 7b, HPLC (TsOYE): class III (TsOYE, XenA, TOYE, YqjM) | bioconversion to 7b, HPLC (TOYE): class III (TsOYE, XenA, TOYE, YqjM) | bioconversion to 7b, HPLC (YqjM): class III (TsOYE, XenA, TOYE, YqjM) | bioconversion to 7b, HPLC (OYE2 [4]): Nine of the enzymes produced the single product 7b | bioconversion to 7b, HPLC (PETNR): Nine of the enzymes produced the single product 7b; class I (PETNR, NCR)
